Assays:
[1] = molecular target: Beta-adrenergic receptor kinase 1 (Homo sapiens) (UniProt P25098); conditions: Compound concentration 1.0 uM
[2] = molecular target: T1, Interleukin-1 receptor-associated kinase 3 (Homo sapiens) (UniProt Q9Y616)
T1 sequence (whole entry): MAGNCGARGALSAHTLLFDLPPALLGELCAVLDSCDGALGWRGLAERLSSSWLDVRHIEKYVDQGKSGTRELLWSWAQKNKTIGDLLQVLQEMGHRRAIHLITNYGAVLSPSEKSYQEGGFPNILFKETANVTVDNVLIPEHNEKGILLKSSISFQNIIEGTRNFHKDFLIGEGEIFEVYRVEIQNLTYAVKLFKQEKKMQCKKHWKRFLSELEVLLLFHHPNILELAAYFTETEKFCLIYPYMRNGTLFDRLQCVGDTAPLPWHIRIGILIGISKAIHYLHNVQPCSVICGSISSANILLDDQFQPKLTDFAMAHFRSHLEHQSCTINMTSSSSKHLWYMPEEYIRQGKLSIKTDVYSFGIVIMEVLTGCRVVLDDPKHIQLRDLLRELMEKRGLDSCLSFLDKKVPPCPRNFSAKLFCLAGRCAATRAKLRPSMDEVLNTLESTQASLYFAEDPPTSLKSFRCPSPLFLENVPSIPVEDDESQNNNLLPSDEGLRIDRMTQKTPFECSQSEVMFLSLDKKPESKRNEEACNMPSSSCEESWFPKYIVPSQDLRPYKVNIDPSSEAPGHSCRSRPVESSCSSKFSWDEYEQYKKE

[3] = molecular target: Myosin light chain kinase, smooth muscle (Homo sapiens) (UniProt Q15746); experiment: SMMLCK DUNDEE kinase screen (BI); conditions: Compound concentration 10.0 uM
[4] = molecular target: Fibroblast growth factor receptor 2 (Homo sapiens) (UniProt P21802); conditions: Compound concentration 1.0 uM
[5] = molecular target: Serine/threonine-protein kinase mTOR (Homo sapiens) (UniProt P42345)
[6] = molecular target: Serine/threonine-protein kinase pim-2 (Homo sapiens) (UniProt Q9P1W9); conditions: Compound concentration 1.0 uM
[7] = molecular target: Proto-oncogene tyrosine-protein kinase Src (Homo sapiens) (UniProt P12931); experiment: SRC N1 Invitrogen Lab (UK) kinase screen (BI); conditions: Compound concentration 1.0 uM
[8] = molecular target: Mitogen-activated protein kinase kinase kinase kinase 4 (Homo sapiens) (UniProt O95819)
Mitogen-activated protein kinase kinase kinase kinase 4 (Homo sapiens), sequence (O95819 2-1239 limits assumed): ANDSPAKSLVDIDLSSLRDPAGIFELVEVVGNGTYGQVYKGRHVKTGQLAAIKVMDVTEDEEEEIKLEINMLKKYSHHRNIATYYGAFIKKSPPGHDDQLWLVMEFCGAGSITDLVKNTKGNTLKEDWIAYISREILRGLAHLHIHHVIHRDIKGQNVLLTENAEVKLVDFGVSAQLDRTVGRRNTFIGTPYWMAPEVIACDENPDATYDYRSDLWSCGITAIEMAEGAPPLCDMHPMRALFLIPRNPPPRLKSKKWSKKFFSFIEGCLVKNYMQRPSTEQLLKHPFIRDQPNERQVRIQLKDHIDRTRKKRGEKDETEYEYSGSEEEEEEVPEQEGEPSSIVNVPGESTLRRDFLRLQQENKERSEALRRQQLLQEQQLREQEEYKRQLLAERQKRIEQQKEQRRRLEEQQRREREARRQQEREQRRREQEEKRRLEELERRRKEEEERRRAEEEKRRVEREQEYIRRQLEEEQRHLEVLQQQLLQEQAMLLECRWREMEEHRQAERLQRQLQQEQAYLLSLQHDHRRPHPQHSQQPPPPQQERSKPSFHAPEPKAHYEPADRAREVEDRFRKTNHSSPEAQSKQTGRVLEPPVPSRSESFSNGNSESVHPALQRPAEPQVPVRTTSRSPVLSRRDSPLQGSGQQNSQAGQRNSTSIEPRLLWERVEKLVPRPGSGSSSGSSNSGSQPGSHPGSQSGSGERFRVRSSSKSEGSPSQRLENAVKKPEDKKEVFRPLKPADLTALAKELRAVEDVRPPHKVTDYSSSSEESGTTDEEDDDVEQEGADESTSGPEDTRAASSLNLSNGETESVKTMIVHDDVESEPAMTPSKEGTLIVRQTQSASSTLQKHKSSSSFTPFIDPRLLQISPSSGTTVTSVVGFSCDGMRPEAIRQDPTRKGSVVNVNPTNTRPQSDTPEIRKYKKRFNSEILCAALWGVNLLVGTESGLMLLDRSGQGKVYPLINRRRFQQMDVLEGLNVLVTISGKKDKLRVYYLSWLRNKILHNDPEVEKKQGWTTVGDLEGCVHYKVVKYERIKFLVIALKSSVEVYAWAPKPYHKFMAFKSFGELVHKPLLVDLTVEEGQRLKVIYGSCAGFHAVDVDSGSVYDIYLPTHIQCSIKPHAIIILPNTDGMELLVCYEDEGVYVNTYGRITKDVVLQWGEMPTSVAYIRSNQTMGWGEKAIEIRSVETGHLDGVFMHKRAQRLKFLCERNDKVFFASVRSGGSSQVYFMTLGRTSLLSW

[9] = molecular target: AMPK alpha2/beta2/gamma3 (Homo sapiens) (UniProt P54646+O43741+Q9UGI9); conditions: Compound concentration 1.0 uM
[10] = molecular target: Adrenergic receptor beta (Rattus norvegicus) (UniProt P18090+P10608+P26255)
[11] = molecular target: Tyrosine-protein kinase TXK (Homo sapiens) (UniProt P42681); conditions: Compound concentration 1.0 uM
[12] = molecular target: Serine/threonine-protein kinase Nek7 (Homo sapiens) (UniProt Q8TDX7); experiment: NEK7 DUNDEE kinase screen (BI); conditions: Compound concentration 10.0 uM
Serine/threonine-protein kinase Nek7 (Homo sapiens), sequence (Q8TDX7 whole entry, looked up): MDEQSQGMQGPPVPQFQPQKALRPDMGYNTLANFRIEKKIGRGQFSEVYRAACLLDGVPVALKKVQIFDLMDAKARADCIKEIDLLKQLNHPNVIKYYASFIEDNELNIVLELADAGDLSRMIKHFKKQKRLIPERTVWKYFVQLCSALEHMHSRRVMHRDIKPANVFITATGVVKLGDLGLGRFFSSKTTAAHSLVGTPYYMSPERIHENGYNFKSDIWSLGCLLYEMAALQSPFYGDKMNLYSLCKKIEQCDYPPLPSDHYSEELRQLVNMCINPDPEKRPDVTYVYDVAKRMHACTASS

[13] = molecular target: Cyclin-dependent kinase 2/cyclin A (Homo sapiens) (UniProt P24941+P20248+P78396); experiment: CDK2/CYCLINA DUNDEE kinase screen (BI); assay type: protein-complex assay; conditions: Compound concentration 10.0 uM
[14] = molecular target: AMPK alpha2/beta1/gamma1 (Homo sapiens) (UniProt P54646+P54619+Q9Y478); experiment: AMPK A2B1G1 Invitrogen Lab (UK) kinase screen (BI); assay type: protein-complex assay; conditions: Compound concentration 1.0 uM
[15] = molecular target: Serine/threonine-protein kinase PAK 2 (Homo sapiens) (UniProt Q13177); conditions: Compound concentration 1.0 uM
[16] = system: PI3-kinase p110-alpha/p85-alpha (Homo sapiens), P27986+P42336 [E545K]; conditions: Compound concentration 1.0 uM
[17] = molecular target: Calpain-1 catalytic subunit (Homo sapiens) (UniProt P07384); conditions: Compound concentration 10.0 uM
[18] = molecular target: Ribosomal protein S6 kinase alpha-3 (Homo sapiens) (UniProt P51812); experiment: MAPKAP-K1B DUNDEE kinase screen (BI); conditions: Compound concentration 10.0 uM
[19] = molecular target: TRAF2 and NCK-interacting protein kinase (Homo sapiens) (UniProt Q9UKE5); conditions: Compound concentration 1.0 uM
[20] = molecular target: Serine/threonine-protein kinase PAK 6 (Homo sapiens) (UniProt Q9NQU5); conditions: Compound concentration 1.0 uM
[21] = molecular target: SRSF protein kinase 1 (Homo sapiens) (UniProt Q96SB4); experiment: SRPK1 DUNDEE kinase screen (BI); conditions: Compound concentration 10.0 uM
[22] = molecular target: Proto-oncogene tyrosine-protein kinase receptor Ret (Homo sapiens) (UniProt P07949); experiment: RET Invitrogen Lab (UK) kinase screen (BI)
Proto-oncogene tyrosine-protein kinase receptor Ret (Homo sapiens), sequence (P07949 whole entry): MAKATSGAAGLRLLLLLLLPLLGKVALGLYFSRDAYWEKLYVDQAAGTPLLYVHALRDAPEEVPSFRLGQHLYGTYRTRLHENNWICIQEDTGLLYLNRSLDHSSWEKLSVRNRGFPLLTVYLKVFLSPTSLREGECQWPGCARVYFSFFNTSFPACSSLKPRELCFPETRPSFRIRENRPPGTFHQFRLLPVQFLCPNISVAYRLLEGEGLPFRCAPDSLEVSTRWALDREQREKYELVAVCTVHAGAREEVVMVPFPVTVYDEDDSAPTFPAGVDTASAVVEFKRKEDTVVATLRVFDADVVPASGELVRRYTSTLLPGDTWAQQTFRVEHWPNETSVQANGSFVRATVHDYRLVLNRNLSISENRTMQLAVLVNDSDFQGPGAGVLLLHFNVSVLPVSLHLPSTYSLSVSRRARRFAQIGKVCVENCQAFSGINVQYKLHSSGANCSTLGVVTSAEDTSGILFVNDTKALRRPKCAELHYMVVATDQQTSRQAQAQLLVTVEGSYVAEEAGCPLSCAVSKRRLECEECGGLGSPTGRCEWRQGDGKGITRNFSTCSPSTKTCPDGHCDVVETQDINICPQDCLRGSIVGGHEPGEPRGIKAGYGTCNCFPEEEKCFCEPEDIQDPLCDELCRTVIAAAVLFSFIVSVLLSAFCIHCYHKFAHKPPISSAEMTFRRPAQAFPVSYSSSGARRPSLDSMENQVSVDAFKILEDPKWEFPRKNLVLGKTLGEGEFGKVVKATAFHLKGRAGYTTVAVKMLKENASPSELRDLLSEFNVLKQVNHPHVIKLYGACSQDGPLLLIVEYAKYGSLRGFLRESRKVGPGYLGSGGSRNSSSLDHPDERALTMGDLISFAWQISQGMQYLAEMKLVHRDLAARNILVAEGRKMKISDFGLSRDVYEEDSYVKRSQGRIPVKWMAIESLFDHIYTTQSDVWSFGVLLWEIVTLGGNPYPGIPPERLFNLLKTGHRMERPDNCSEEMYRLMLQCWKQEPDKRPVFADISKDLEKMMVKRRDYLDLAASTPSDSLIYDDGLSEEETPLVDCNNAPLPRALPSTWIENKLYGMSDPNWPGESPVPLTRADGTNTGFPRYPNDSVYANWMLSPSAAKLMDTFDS

[23] = molecular target: Aurora kinase B (Homo sapiens) (UniProt Q96GD4); experiment: AURORA B DUNDEE kinase screen (BI); conditions: Compound concentration 10.0 uM
[24] = molecular target: Serine/threonine-protein kinase Nek1 (Homo sapiens) (UniProt Q96PY6)
Serine/threonine-protein kinase Nek1 (Homo sapiens), sequence (Q96PY6 whole entry): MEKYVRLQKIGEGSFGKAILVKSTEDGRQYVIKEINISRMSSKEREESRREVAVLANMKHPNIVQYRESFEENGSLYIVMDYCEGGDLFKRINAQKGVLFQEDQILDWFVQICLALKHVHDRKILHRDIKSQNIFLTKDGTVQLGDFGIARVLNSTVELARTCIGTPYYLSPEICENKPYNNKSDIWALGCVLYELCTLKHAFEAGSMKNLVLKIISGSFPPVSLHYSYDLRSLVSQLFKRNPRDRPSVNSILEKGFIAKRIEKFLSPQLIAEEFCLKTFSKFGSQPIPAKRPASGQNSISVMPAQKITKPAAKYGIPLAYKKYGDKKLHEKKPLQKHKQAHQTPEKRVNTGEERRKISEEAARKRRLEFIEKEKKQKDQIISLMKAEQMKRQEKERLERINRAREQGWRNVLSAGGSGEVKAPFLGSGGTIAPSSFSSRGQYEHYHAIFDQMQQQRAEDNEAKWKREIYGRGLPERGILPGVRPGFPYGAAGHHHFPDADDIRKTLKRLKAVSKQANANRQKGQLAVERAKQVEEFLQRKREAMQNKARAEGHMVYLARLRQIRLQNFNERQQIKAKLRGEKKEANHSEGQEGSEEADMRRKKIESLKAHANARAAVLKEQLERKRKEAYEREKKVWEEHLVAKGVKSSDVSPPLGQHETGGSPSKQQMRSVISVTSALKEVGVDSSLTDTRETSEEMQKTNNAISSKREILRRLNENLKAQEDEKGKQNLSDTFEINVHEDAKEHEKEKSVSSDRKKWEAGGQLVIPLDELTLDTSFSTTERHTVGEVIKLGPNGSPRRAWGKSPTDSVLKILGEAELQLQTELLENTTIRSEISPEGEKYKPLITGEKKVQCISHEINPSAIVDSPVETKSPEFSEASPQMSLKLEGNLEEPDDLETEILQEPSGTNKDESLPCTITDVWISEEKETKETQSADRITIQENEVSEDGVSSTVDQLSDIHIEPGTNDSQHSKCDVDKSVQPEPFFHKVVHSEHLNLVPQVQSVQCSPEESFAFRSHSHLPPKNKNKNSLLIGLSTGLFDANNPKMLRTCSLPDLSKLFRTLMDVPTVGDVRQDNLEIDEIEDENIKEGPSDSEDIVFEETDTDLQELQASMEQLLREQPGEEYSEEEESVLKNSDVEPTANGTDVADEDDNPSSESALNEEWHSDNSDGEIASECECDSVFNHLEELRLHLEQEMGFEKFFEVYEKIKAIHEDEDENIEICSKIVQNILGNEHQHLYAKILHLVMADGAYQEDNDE

[25] = molecular target: SRSF protein kinase 2 (Homo sapiens) (UniProt P78362); experiment: SRPK2 Invitrogen Lab (UK) kinase screen (BI); conditions: Compound concentration 1.0 uM
[26] = molecular target: Tyrosine-protein kinase ZAP-70 (Homo sapiens) (UniProt P43403); conditions: Compound concentration 1.0 uM
[27] = molecular target: Homeodomain-interacting protein kinase 3 (Homo sapiens) (UniProt Q9H422); conditions: Compound concentration 1.0 uM
Homeodomain-interacting protein kinase 3 (Homo sapiens), sequence (Q9H422 whole entry, looked up): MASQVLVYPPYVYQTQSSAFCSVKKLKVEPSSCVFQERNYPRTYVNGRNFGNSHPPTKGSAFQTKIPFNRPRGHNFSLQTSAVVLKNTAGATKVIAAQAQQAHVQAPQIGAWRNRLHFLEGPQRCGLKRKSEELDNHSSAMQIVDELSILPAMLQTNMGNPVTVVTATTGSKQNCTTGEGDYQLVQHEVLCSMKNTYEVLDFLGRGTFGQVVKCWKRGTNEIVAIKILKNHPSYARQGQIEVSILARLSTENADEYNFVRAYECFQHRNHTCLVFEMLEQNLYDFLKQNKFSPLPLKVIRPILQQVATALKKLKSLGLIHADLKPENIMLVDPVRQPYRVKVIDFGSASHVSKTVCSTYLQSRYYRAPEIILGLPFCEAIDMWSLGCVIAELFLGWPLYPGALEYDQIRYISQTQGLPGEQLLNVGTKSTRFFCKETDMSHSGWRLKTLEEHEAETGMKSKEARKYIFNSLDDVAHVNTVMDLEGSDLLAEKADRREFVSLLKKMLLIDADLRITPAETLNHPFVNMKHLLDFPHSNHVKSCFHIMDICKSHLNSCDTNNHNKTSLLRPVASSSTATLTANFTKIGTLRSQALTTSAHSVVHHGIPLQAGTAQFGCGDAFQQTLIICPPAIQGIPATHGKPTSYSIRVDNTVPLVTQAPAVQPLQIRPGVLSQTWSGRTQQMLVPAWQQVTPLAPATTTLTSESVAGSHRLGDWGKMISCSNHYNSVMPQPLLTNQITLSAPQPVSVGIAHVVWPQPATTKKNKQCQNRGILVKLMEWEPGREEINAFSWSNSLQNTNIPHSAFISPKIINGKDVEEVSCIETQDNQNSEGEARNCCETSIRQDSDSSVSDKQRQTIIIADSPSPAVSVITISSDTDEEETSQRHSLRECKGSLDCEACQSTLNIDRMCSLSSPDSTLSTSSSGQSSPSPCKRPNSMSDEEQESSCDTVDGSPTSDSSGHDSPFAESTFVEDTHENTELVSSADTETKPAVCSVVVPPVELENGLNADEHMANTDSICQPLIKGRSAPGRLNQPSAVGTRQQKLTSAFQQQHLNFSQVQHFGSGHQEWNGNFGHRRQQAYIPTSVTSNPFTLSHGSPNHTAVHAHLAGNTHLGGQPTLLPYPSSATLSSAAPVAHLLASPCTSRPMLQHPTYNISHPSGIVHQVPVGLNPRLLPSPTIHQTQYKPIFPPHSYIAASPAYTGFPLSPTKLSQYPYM

[28] = molecular target: Serine/threonine-protein kinase ULK3 (Homo sapiens) (UniProt Q6PHR2); conditions: Compound concentration 1.0 uM
[29] = molecular target: Ephrin type-B receptor 4 (Homo sapiens) (UniProt P54760); conditions: Compound concentration 1.0 uM
[30] = molecular target: Mitogen-activated protein kinase 10 (Homo sapiens) (UniProt P53779); conditions: Compound concentration 1.0 uM
[31] = molecular target: Serine/threonine-protein kinase MRCK beta (Homo sapiens) (UniProt Q9Y5S2); experiment: CDC42 BPB Invitrogen Lab (UK) kinase screen (BI); conditions: Compound concentration 1.0 uM
[32] = molecular target: Mitogen-activated protein kinase kinase kinase 21 (Homo sapiens) (UniProt Q5TCX8); conditions: Compound concentration 1.0 uM
[33] = molecular target: Serine/threonine-protein kinase TAO1 (Homo sapiens) (UniProt Q7L7X3); experiment: TAOK1 Invitrogen Lab (UK) kinase screen (BI); conditions: Compound concentration 1.0 uM
[34] = molecular target: CDC7/DBF4 (Cell division cycle 7-related protein kinase/Activator of S phase kinase) (Homo sapiens) (UniProt Q9UBU7+O00311); experiment: CDC7/DBF4 Invitrogen Lab (UK) kinase screen (BI); assay type: protein-complex assay; conditions: Compound concentration 1.0 uM

## CCC(F)(F)c1cc(N2CCC(S(C)(=O)=O)CC2)nc2sc(C(N)=O)c(N)c12 [BI-605906]
[1]
  residual activity: 95%
[2]; Compound concentration 0.001 uM
  residual activity: 93%
[2]; Compound concentration 1.0 uM
  residual activity: 24%
[2]; Compound concentration 20.0 uM
  residual activity: 14%
[3]
  residual activity: 57.7%
[4]
  residual activity: 94%
[5]; Compound concentration 1.0 uM
  residual activity: 99%
[5]; Compound concentration 10.0 uM
  residual activity: 98%
[6]
  residual activity: 99%
[7]
  residual activity: 88%
[8]; Compound concentration 1.0 uM
  residual activity: 95%
[8]; Compound concentration 10.0 uM
  residual activity: 89%
[9]
  residual activity: 99%
[10]; Compound concentration 10.0 uM
  residual activity: 86%
[10]; Compound concentration 100.0 uM
  residual activity: 94%
[11]
  residual activity: 93%
[12]
  residual activity: 104%
[13]
  residual activity: 78%
[14]
  residual activity: 88%
[15]
  residual activity: 95%
[16]
  residual activity: 100%
[17]
  residual activity: 97%
[18]
  residual activity: 78.2%
[19]
  residual activity: 99%
[20]
  residual activity: 105%
[21]
  residual activity: 73.3%
[22]; Compound concentration 1.0 uM
  residual activity: 60%
[22]; Compound concentration 10.0 uM
  residual activity: 32%
[23]
  residual activity: 60.9%
[24]; Compound concentration 1.0 uM
  residual activity: 92%
[24]; Compound concentration 10.0 uM
  residual activity: 30%
[25]
  residual activity: 103%
[26]
  residual activity: 95%
[27]
  residual activity: 95%
[28]
  residual activity: 95%
[29]
  residual activity: 90%
[30]
  residual activity: 101%
[31]
  residual activity: 103%
[32]
  residual activity: 97%
[33]
  residual activity: 88%
[34]
  residual activity: 88%
